Key:
Assay type in all cases: cell-based
[1] = system: TNF-α secretion, peripheral blood mononuclear cells (PBMCs); test: Suppression of TNF-α secretion in LPS-treated PBMCs (ELISA); details: PBMC, 100 ng/ml LPS, 24 hours, read-out: TNF-α, % inhibition degree
Procedure, shortened: (§1)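 PBMCs (1×10^5 cells/well for TNF-α, 2×10^5 for IFN-α) preincubated 30 min with compound, then stimulated with 100 ng/ml LPS for 24 h (TNF-α) or 500 nM ODN2216 for 72 h (IFN-α). Cytokines in supernatants quantified by sandwich ELISA with TMB, absorbance 450/570 nm.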

[2] = system: NF-κB promoter, THP1-Lucia™ NF-κB cell line; test: NF-κB promoter inhibition, THP1-Lucia NF-κB cell line; details: 100 ng/ml LPS, 24 hours, read-out: NF-κB, % inhibition degree
Procedure, shortened: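 THP1-Lucia cells (NF-κB line 1×10^4/well, ISG line 2×10^4/well) preincubated with compound for 30 minutes. Stimulation then used 100 ng/ml LPS (NF-κB) or 1 μg/ml Poly(dA:dT)/LyoVec (ISG) for 24 hours. Secreted luciferase in supernatant measured by Quanti-luc luminescence.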

[3] = system: IFN-α secretion, peripheral blood mononuclear cells (PBMCs); test: Suppression of IFN-α secretion in ODN2216-treated PBMCs (ELISA); details: PBMC, 500 nM ODN2216, 72 hours, read-out: IFN-α, % inhibition degree
Procedure, shortened: as §1

Fc1cncc(-c2ccc3[nH]c4ncnc(N[C@H]5CC[C@H](N6CCOCC6)CC5)c4c3c2)c1 [Compound 6aaf, 6-(5-fluoropyridin-3-yl)-N-(trans-4-morpholinocyclohexyl)-9H-pyrimido[4,5-b]indole-4-amine]
inhibition at 0.1 µM ([1]; 0.1 μM): 51%
inhibition at 1 µM ([1]; 1 μM): 124%
inhibition at 0.1 µM ([2]; 0.1 μM): 43%
inhibition at 1 µM ([2]; 1 μM): 82%
inhibition at 0.1 µM ([3]; 0.1 μM): 48%
inhibition at 1 µM ([3]; 1 μM): 96%
